{"source": "patent US20060035889A1", "about": "“Treatment for methamphetamine addiction and reduction of methamphetamine use using serotonin antagonists” (priority 2004, published 2006)", "key": {"[1]": {"target": "α2", "details": "read-out: receptor affinity (Ki) α2; cited from earlier work"}, "[2]": {"tested_on": "ventral pallidal neurons", "experiment": "Electrophysiology of ventral pallidal neurons, i.v. METH dose-response in chloral hydrate-anesthetized rats", "type": "in vivo, rat", "procedure": "Based on the biochemical results and because the ventral pallidum contains one of the highest concentrations of 5-HT in the brain, electrophysiological evaluations of this region in rats behaviorally sensitized to METH were conducted (with a 5-day once daily treatment of 2.5 mg/kg). The acute challenge was intravenously administered METH (via a tail vein cannula) as previously used by T. C. Napier's lab ^e.g., [34] where the drug is given in a cumulative dosing fashion such that each dose, administered in 2 min-intervals, essentially doubles the previous dose. METH was tested using a range of 0.06-4.0 mg/kg in saline vehicle. […] Moreover, this approach establishes if systemic administration of METH, in doses that include those producing behavioral sensitization, are sufficient promote sensitized cellular responding and thus allows for direct comparisons of cellular responding to behavioral outcomes. After a 3-day withdrawal, the ability of intravenously administered METH or 1-(2,5-dimethoxy-4-iodophenyl)-2-aminopropane (DOI) to increase ventral pallidal cell firing was enhanced in chloral hydrate-anesthetized rats, as shown by a leftward shift in the dose-response curve with a […] and an increase in response efficacy for both agonists (FIG. 16) and this occurred without any changes in the portion of neurons showing a rate increase or decrease to the acute METH challenge.\nElectrophysiological assessment of the ventral pallidum was also conducted 30 days after repeated METH. […] For each experiment, an i.v. METH dose-response curve (METH was tested using a range of 0.06-2.0 mg/kg in saline vehicle) was generated for one ventral pallidal neuron per rat at 30 days withdrawal from repeated METH. Based on the analysis of curves where there was an excitatory effect of i.v. METH on ventral pallidal neurons (171 animals), there was a diminished excitatory effect of i.v. METH in the ventral pallidum of rats that were pretreated with METH only. This is illustrated by both the curves and corresponding Emax data in FIG. 17. This decrease only at long-term withdrawal mirrors the reduction seen in pallidal pCREB only after 14, but not at 3 day withdrawal from repeated METH (see Example III)."}}, "data": [{"smiles": "CN1CCN2c3ncccc3Cc3ccccc3[C@@H]2C1", "note": "(racemic) [mirtazapine, 1,2,3,4,10,14b-hexahydro-2-methyl-pyrazino[2,1-a]pyrido[2,3-c]benzazepine]", "values": [{"measurement": "Ki", "setting": "[1]", "value": 0.065, "unit": "µM"}, {"measurement": "Emax of Firing Rate Increases of Acute Meth", "setting": "[2]; METH days 1-5, then antagonist, tested 31 days after last METH", "value": "251% ± 21% (n = 5)"}, {"measurement": "Emax of Firing Rate Increases of Acute Meth", "setting": "[2]; Sal days 1-5, then antagonist, tested 31 days after last injection", "value": "240% ± 44% (n = 5)"}, {"measurement": "effect of repeated METH on response of ventral pallidal neurons to acute METH challenge", "setting": "[2]; after 30 days withdrawal", "value": "reversal"}]}]}
